For data set [1] the following is noted: cited from earlier work; for Experimental S value: room-temperature, around pH 7.0; for LogS_exp: experimental aqueous solubility: literature S values converted to mol/L and transformed into logS.
The nature of data set [2]: Aqueous solubility (pH 7) by modified shake flask method and RP-HPLC. Type of data set: physicochemical. The method, then:
In one of our drugs discovering projects toward antitumor therapeutics, a series of novel FLT3 inhibitors were designed and synthesized using the structure-based drug design methods. The aqueous solubilities (pH = 7) of these compounds were measured using the modified shake flask method and RP-HPLC ([34], [35]). Each compound was added into a 1.5 mL Eppendorf tube containing Milli-Q water (1 mL) to form the precipitates at 25°C. Then the mixture was subjected to a solubility-equilibrium stage. The tube was shook at 300 rpm at 25°C for 24 h. The precipitate was separated by centrifugation at 23,000 g for 20 min. Subsequently, 0.25 mL of supernatant was transferred into a 1 mL Eppendorf tube, and it was centrifuged again with the same settings used above. The supernatant was then used for HPLC analysis. An Agilent 1260 Infinity LC system (Agilent Technologies, Inc., Santa Clara, California) was used. For HPLC conditions, a ZORBAX SB-C18 column (5 μM, 4.6 × 150 mm; Agilent), a flow rate of 0.8 mL/min for mobile phase, a UV wavelength of 250 nm and a column temperature of 30°C were used. The sample was injected automatically by a mechanical arm and separated by a constant mixture of methanol/PBS (pH 5.6), 90:10. For each compound, a standard curve consisting of four concentrations was established. The synthetic methods of all but compound SC5 and SC6 have been published in literatures ([36]–[39]). The synthetic methods of SC5 and SC6 are described in Supplementary Method 1.

Where [3] appears, read: by HPLC, ref Thompson et al., 2018.
Setting [4] is: method NA, ref Hamdy et al., 2017.
Where [5] appears, read: Milli-Q water, pH 7, 25°C, 24 h shaking, RP-HPLC, read-out: Experimental S value.

Converted amounts (≈) assume the structure as drawn. Like-named read-outs stand apart in the source and are kept apart here. A value given as a limit tells only on which side of the number the result lay.

On to `O=[N+]([O-])c1cn2c(n1)OC[C@H](Oc1ccc(C(F)(F)F)cn1)C2` [NC7], for which, in data set [1] (setting [3]), the “Experimental S value” was 110 µg/mL.
For `CN(Cc1ccc(C(F)(F)F)cc1)c1cc(C(=O)Nc2ncn(C)n2)ncn1` [NC2], the “LogS_exp: experimental aqueous solubility” value in data set [1] is reported as -3.762 logarithmic units of mol/L. Also, the “Experimental S value” in data set [1] (method NA, ref Wilson et al., 2017) is 173 µM.
One may read the melting point as the temperature of the solid-liquid transition. As for `COc1ccc(Oc2ccc3c(NC(=O)c4ccc(NC5CCN(C)CC5)cc4)n[nH]c3c2)cc1` [SC5], the melting point fell in the range of 236 to 238 °C. In data set [2] (24 h, pH 7), the “Experimental S value” was determined as 0.019714 mg/mL. In data set [2] (pH 7, water), this compound gave a solubility thermodynamic at 24 h of 19.7 µg/mL (≈ 41.8 µM).
As to `O=C(/C=C(/C=C/c1cccnc1)NCCO)/C=C/c1cccnc1` [NC6], in data set [1] (by shake flask method and colorimetry, ref Theppawong et al., 2018), the “Experimental S value” is 4350.8 µM. Moreover, the “LogS_exp: experimental aqueous solubility” value in data set [1] is reported as -2.361 logarithmic units of mol/L.
Consider `COC1=C/C(=N/NC(=O)c2ccncc2)C[C@@H](C)[C@]12Oc1c(Cl)c(OC)cc(OC)c1C2=O` (relative stereo) [NC4], for which the “LogS_exp: experimental aqueous solubility” value in data set [1] is on record as -4.576 logarithmic units of mol/L. Further, the “Experimental S value” in data set [1] (setting [4]) is 12.53 µg/mL.
In the case of `COc1cc(OC)c2c(c1Cl)O[C@]1(C2=O)C(OCc2ccccc2)=C/C(=N\OCC(=O)O)C[C@H]1C` (relative stereo) [NC5], the “LogS_exp: experimental aqueous solubility” value in data set [1] is recorded as -4.254 logarithmic units of mol/L. Further, the “Experimental S value” in data set [1] (setting [4]) was 27.94 µg/mL.
With `N#CCC(=O)c1cc(C#N)cs1` [SC1], the solubility thermodynamic at 24 h in data set [2] (setting [5]) worked out at 30.7 µg/mL (≈ 174 µM).
In the case of `O=C(Nc1ccccc1OC(F)(F)F)N[C@@H]1COc2nc([N+](=O)[O-])cn2C1` [NC3], the “Experimental S value” in data set [1] (setting [3]) was 22 µg/mL. For the same compound, in data set [1], the “LogS_exp: experimental aqueous solubility” value was -4.246 logarithmic units of mol/L.
Consider `CN1CCC(Nc2ccc(C(=O)Nc3n[nH]c4cc(Oc5ccccc5)ccc34)cc2)CC1` [SC6], for which, in data set [2] (pH 7, water), the solubility thermodynamic at 24 h is under 10 µg/mL.
Still for that read-out and setting: under `N#Cc1csc(-c2cc(N)[nH]n2)c1` [SC2] stands 31.7 µg/mL (≈ 167 µM).
Take `Cc1nc2c(c(-c3nc(Nc4c[nH]nc4C(=O)Nc4ccc(N5CCNCC5)cc4)c4ccsc4n3)n1)CCCC2` [SC4]: the “Experimental S value” in data set [2] (Milli-Q water, pH 7, 25°C, 24 h shaking, RP-HPLC) was 0.10491 mg/mL. Besides, in data set [2] (setting [5]), the solubility thermodynamic at 24 h came to 105 µg/mL (≈ 185 µM).
Take `Cc1nc(Nc2c[nH]nc2C(=O)Nc2ccc(CN3CCOCC3)cc2)c2cc(C(C)C)sc2n1` [SC3]: in data set [2] (setting [5]), the solubility thermodynamic at 24 h was 60.7 µg/mL (≈ 124 µM).

These data come from article PMC7026387, “Improved Prediction of Aqueous Solubility of Novel Compounds by Going Deeper With Deep Learning” (Frontiers in Oncology, 2020).
